Test results: patent US20250304643A1, “PEPTIDE DUAL AGONISTS OF GIPR AND GLP2R” (BAINAN BIOTECH APS, priority 2021, published 2025)
Read-outs that look alike come from different tables or passages of the source.

Assays:
Type in all cases: cell-based
[1] = target: T1, human GLP-1R (Homo sapiens, UniProt P43220); test: HitHunter cAMP assay in transiently transfected COS-7 cells, human GLP-1R; conditions: for activation of hGLP-1R: fatty acid at C-terminal residue or position 16
T1 construct: host or cells: COS-7
Method: The next day the assay was initiated by washing with HEPES buffered saline (HBS) and followed by an incubation step with assay buffer (HBS added 1 mM isobutyl-1-methylxanthine (IBMX)) for 30 min at 37° C. The ligands were then added and incubated for an additional 30 min at 37° C. After ligand incubation, the HitHunter® CAMP assay (Eurofins DiscoverX, Fremont, […] USA) was carried out according to the manufacturer's instructions. Luminescence was measured by PerkinElmer™ EnVision 2014 Multilabel Reader (PerkinElmer, Waltham, MA). The potencies (EC50 values) were determined by nonlinear regression using GraphPad Prism 9 (San Diego, California, USA). Sigmoid curves were fitted logistically. The efficacies (Emax values) were determined by normalization to the highest concentration applied of the endogenous ligand for each receptor.

[2] = target: T2, human GLP-2R (Homo sapiens, UniProt O95838); test: HitHunter cAMP assay in transiently transfected COS-7 cells, human GLP-2R;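 note: cells kept 30 min at 37 °C in buffer with 1 mM IBMX, then given ligand for another 30 min at 37 °C before cAMP readout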
T2 construct: host or cells: COS-7
T2 sequence (O95838 1-553): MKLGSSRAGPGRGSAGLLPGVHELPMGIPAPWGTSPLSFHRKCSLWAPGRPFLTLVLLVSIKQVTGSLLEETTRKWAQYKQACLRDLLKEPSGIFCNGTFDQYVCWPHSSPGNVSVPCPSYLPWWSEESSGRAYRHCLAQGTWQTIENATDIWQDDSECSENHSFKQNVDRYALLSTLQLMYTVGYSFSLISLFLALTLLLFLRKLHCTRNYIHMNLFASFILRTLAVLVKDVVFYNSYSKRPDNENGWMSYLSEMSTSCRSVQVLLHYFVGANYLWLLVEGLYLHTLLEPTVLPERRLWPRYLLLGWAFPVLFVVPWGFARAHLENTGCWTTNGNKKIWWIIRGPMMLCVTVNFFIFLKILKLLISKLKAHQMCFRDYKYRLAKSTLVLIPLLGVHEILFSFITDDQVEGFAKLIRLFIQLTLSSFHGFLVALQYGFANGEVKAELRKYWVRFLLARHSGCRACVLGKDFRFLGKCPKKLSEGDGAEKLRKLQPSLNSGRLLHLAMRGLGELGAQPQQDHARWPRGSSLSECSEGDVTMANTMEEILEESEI
Method: COS-7 cells were cultured at 10% CO2 and 37° C. in Dulbecco's Modified Eagle Medium (DMEM) 1885 supplemented with 10% fetal bovine serum (FBS), 2 mM glutamine, 180 units/ml penicillin, and 45 g/ml streptomycin.
The next day the assay was initiated by washing with HEPES buffered saline (HBS) and followed by an incubation step with assay buffer (HBS added 1 mM isobutyl-1-methylxanthine (IBMX)) for 30 min at 37° C. The ligands were then added and incubated for an additional 30 min at 37° C. After ligand incubation, the HitHunter® CAMP assay (Eurofins DiscoverX, Fremont, 150 USA) was carried out according to the manufacturer's instructions. Luminescence was measured by PerkinElmer™ EnVision 2014 Multilabel Reader (PerkinElmer, Waltham, MA). The potencies (EC50 values) were determined by nonlinear regression using GraphPad Prism 9 (San Diego, California, USA). Sigmoid curves were fitted logistically. The efficacies (Emax values) were determined by normalization to the highest concentration applied of the endogenous ligand for each receptor.

[3] = target: T3, human GIPR (Homo sapiens, UniProt P48546); design: host or cells: COS-7
T3 sequence (P48546 22-466): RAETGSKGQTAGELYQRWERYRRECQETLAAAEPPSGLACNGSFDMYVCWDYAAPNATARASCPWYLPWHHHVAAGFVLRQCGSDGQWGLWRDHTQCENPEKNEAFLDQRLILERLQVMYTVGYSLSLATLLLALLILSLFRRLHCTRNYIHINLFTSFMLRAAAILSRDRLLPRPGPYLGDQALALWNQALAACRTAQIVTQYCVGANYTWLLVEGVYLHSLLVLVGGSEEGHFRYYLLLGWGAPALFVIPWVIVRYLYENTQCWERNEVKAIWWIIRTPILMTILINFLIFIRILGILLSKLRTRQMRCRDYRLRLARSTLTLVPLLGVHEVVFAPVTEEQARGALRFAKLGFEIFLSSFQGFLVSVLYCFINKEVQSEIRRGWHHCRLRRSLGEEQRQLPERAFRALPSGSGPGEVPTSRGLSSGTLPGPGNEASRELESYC

[4] = Emax normalized to highest concentration of endogenous ligand, Table 3
[5] = Emax normalized to highest concentration of endogenous ligand, Table 2
[6] = comparative peptides, Emax normalized to endogenous ligand, Table C
[7] = comparative peptides, Emax normalized to endogenous ligand, Table B
[8] = comparative peptides, Emax normalized to endogenous ligand, Table 4A

T1 sequence (P43220 24-463): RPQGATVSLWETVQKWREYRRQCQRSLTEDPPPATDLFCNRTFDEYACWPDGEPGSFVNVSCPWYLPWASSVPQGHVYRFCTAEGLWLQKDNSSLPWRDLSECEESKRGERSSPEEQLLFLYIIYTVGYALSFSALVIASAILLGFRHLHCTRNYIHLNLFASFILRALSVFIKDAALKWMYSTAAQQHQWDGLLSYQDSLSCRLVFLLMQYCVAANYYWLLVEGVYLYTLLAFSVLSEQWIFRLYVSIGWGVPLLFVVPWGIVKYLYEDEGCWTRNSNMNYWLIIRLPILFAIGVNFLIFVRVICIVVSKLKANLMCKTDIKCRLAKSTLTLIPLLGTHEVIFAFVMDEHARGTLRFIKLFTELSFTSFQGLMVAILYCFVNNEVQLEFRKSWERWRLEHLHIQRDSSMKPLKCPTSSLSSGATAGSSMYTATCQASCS

Row | Substance | Efficacy GLP-1R [1, 4] | Efficacy GLP-2R [2, 5] | Efficacy GIPR [3, 5] | further results
1 | (C10-diacid)H-Aib-DGTFISDYST-Aib-LDNLAARDFINWLIQTKITK-OH [Compound no. 18] | 10 | 90 | 77 | –
2 | (C16)H-Aib-DGTFISDYST-Aib-LDNLAARDFINWLIQTKITK-OH [Compound no. 5] | 6 | 109 | 111 | –
3 | (C16)H-Aib-DGTFISDYSTILD-Aib-LAARDFINWLIQTKITK-OH [Compound no. 6] | 34 | 91 | 108 | –
4 | (C16)H-Aib-DGTFISDYSTILDNLAARDFIEWLIQTKIT-OH [Compound no. 8] | 19 | 106 | 108 | –
5 | (C16)H-Aib-DGTFISDYSTILDNLAARDFIEWLIQTKITK-OH [Compound no. 7] | 13 | 101 | 114 | –
6 | (C16)HADGTFISDYSTILDAibLAARDFINWLIQTKITKNDWKHNITQ [Compound no. 16] | 2 | 64 | 99 | –
7 | (C16)HADGTFISDYSTILDELAARDFINWLIQTKITKNDWKHNITQ [Compound no. 48] | – | 69 | 112 | –
8 | (C16)HADGTFISDYSTILDNLAAKDFINWLIQTKITK [Compound no. 45] | – | 59 | 91 | –
9 | (C16)HADGTFISDYSTILDNLAARDFIEWLIQTKITKNDWKHNITQ [Compound no. 50] | – | 70 | 101 | –
10 | (C16)HADGTFISDYSTILDNLAARDFINWLIATKITKNDWKHNITQ [Compound no. 52] | – | 68 | – | –
11 | (C16)HADGTFISDYSTILDNLAARDFINWLIETKITKNDWKHNITQ [Compound no. 51] | – | 66 | 104 | –
12 | (C16)HADGTFISDYSTILDNLAARDFINWLIQTKIT [Compound no. 2] | – | 59 | 80 | –
13 | (C16)HADGTFISDYSTILDNLAARDFINWLIQTKITKAEWKHAITQ [Compound no. 49] | – | 92 | 105 | –
14 | (C16)HADGTFISDYSTILDNLAARDFINWLLAQKITK [Compound no. 46] | – | 82 | 98 | –
15 | (C16)HADGTFISDYSTILELLAARDFINWLIQTKITKNDWKHNITQ [Compound no. 15] | 0 | 70 | 106 | –
16 | (C16-diacid)H-Aib-DGTFISDYST-Aib-LDALAARDFIEWLIQTKITK-OH [Compound no. 20] | – | 88 | 93 | –
17 | (C16-diacid)H-Aib-DGTFISDYST-Aib-LDKLAARDFIEWLIQTKITK-OH [Compound no. 22] | – | 95 | 91 | –
18 | (C16-diacid)H-Aib-DGTFISDYST-Aib-LDKLAARDFINWLIETKITK-OH [Compound no. 23] | – | 86 | 107 | –
19 | (C16-diacid)H-Aib-DGTFISDYST-Aib-LDNLAAKDFINWLIQTKITKNDWKHNITQ-OH [Compound no. 42] | – | 93 | – | –
20 | (C16-diacid)H-Aib-DGTFISDYST-Aib-LDNLAARDFINWLIQTKITK-OH [Compound no. 17] | 5 | 90 | 98 | –
21 | (C16-diacid)H-Aib-DGTFISDYST-Aib-LDNLAARDFINWLIQTKITKNDWKHNITQ-OH [Compound no. 40] | – | 96 | 94 | –

Row | Substance | Efficacy GLP-1R [1, 4] | Efficacy GLP-2R [2, 5] | Efficacy GIPR [3, 5] | further results
22 | (C16-diacid)H-Aib-EGTFISDYST-Aib-LDALAARDFINWLIQTKITKNDWKHNITQ-OH [Compound no. 41] | 14 | 74 | 91 | –
23 | (C16-diacid)H-Aib-EGTFISDYST-Aib-LDKLAARDFINWLIQTKITK-OH [Compound no. 21] | 10 | 58 | 86 | –
24 | (C16-diacid)H-Aib-EGTFISDYST-Aib-LDNLAAKDFINWLIQTKITKNDWKHNITQ-OH [Compound no. 43] | – | 73 | 101 | –
25 | (C16-diacid)H-Aib-EGTFISDYST-Aib-LDNLAARDFINWLIQTKITK-OH [Compound no. 19] | – | 81 | 98 | –
26 | (C16-diacid)HADGTFISDYSTAibLDNLAARDFINWLIQTKITKNDWKHNITQ [Compound no. 39] | – | 78 | 99 | –
27 | Ac-H-Aib-DGTFISDY-K(γGlu-C16)-T-Aib-LDNLAARDFINWLIQTKITK-OH [Compound no. 34] | – | 103 | 75 | –
28 | Ac-H-Aib-DGTFISDY-K(γGlu-C16)-T-Aib-LDNLAARDFINWLIQTKITKNDWKHNITQ-OH [Compound no. 38] | – | 89 | 81 | –
29 | H-Aib-DG-K(γGlu- γGlu-C10)-FISDYSTILDNLAARDFINWLIQTKITK-OH [Compound no. 26] | 14 | 91 | 80 | –
30 | H-Aib-DG-K(γGlu- γGlu-C16)-FISDYST-Aib-LDNLAARDFINWLIQTKITK-OH [Compound no. 28] | 14 | 99 | 105 | –
31 | H-Aib-DGTF-K(γGlu-C16)-SDYSTILDNLAARDFINWLIQTKITK-OH [Compound no. 10] | 10 | 23 | 102 | –
32 | H-Aib-DGTFISDY-K(γGlu-C10)-T-Aib-LDNLAARDFINWLIQTKITD-OH [Compound no. 30] | 10 | 81 | 85 | –
33 | H-Aib-DGTFISDY-K(γGlu-C16)-T-Aib-LDNLAARDFINWLIQTKITK-OH [Compound no. 29] | 0 | 124 | 104 | –
34 | H-Aib-DGTFISDY-K(γGlu-C16)-TILDNLAARDFINWLIETKITK-OH [Compound no. 32] | – | 84 | 89 | –
35 | H-Aib-DGTFISDYS-K(γGlu-C16)-ILDNLAARDFINWLIQTKITK-OH [Compound no. 12] | 62 | 79 | 107 | –
36 | H-Aib-DGTFISDYST-Aib-LDNLAARDFINWLIQTKITK(C10)-NH2 [Compound no. 65, reference compound] | – | – | – | Efficacy GLP-1R [1, 6]: 76; activation of hGLP-1R [1]: capable of activating hGLP-1R; Efficacy GLP-2R [2, 7]: 77; Efficacy GIPR [3, 8]: 107
37 | H-Aib-DGTFISDYSTILDNLAARDFINWLIQTKITK(C10)-OH [Compound no. 63, reference compound] | – | – | – | Efficacy GLP-1R [1, 6]: 84; activation of hGLP-1R [1]: capable of activating hGLP-1R; Efficacy GLP-2R [2, 7]: 105; Efficacy GIPR [3, 8]: 99
38 | HADGTFISDYSTAibLDK(γGlu-C18-diacid) LAARDFINWLIQTKGKK [Compound no. 62, reference compound] | – | – | – | activation of hGLP-1R [1]: capable of activating hGLP-1R
39 | HADGTFISDYSTAibLDNLAARDFINWLIQTKGKKK(γGlu-C18-diacid) [Compound no. 61, reference compound] | – | – | – | activation of hGLP-1R [1]: capable of activating hGLP-1R
40 | HADGTFISDYSTILDK(γGlu-C18-diacid) LAARDFINWLIQTKGKK [Compound no. 64, reference compound] | – | – | – | activation of hGLP-1R [1]: capable of activating hGLP-1R
41 | HADGTFISDYSTILDNLAARDFINWLIQTKGKK(γGlu-C18-diacid) [Compound no. 60, reference compound] | – | – | – | activation of hGLP-1R [1]: capable of activating hGLP-1R
